{"source": "paper PMC10250385", "about": "“Pregnane X receptor agonist nomilin extends lifespan and healthspan in preclinical models through detoxification functions” (Nature Communications, 2023)", "molecules": {"B1": {"name": "nuclear receptor coactivator 1 residues 676–700 (NCOA1^676–700) (peptide, UniProt Q15788-1 676-700, looked up)", "peptide": "CPSSHSSLTERHKILHRLLQEGSPS", "notes": "In the crystal it stood on one chain with the hPXR LBD, joined to its C-terminus by the spacer SSSGGT: see m1; source: Sf9 (recombinant baculovirus), purified, as part of the fusion protein m1; not shown: His6, C-terminal, cleaved"}, "B2": {"name": "hPXR^LBD-NCOA1^676–700 fusion protein (other)", "chain": "SERTGTQPLGVQGLTEEQRMMIRELMDAQMKTFDTTFSHFKNFRLPGVLSSGCELPESLQAPSREEAAKWSQVRKDLCSLKVSLQLRGEDGSVWNYKPPADSGGKEIFSLLPHMADMSTYMFKGIISFAKVISYFRDLPIEDQISLLKGAAFELCQLRFNTVFNAETGTWECGRLSYCLEDTAGGFQQLLLEPMLKFHYMLKKLQLHEEEYVLMQAISLFSPDRPGVLQHRVVDQLQEQFAITLKSYIECNRPQPAHRFLFLKIMAMLTELRSINAQHTQRLLRIQDIHPFATPLMQELFGITSSSGGTCPSSHSSLTERHKILHRLLQEGSPS", "notes": "spacer -Ser-Ser-Ser-Gly-Gly-Thr- between the hPXR LBD and the NCOA1 peptide; A TEV protease recognition site stood between the NCOA1 peptide and the His6 tag; Crystallised with nomilin in the ligand pocket; also called hPXR chimera; source: Sf9 (recombinant baculovirus), purified (Talon IMAC, TEV cleavage, second IMAC, SEC on Superdex 200 Increase); not shown: His6, C-terminal, cleaved"}}, "key": {"[1]": {"molecular_target": "T1, human pregnane X receptor (hPXR) (Homo sapiens, UniProt O75469)", "T1 sequence (O75469 130-434 limits assumed)": "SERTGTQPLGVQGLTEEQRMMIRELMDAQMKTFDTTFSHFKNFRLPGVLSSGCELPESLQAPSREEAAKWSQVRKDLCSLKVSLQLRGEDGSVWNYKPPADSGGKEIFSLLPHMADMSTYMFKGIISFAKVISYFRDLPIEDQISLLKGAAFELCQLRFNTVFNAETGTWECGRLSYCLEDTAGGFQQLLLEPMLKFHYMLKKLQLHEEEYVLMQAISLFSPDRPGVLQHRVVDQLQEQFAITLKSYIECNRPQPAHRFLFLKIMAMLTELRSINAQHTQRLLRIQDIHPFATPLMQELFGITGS", "test": "biochemical", "design": "gene NR1I2"}, "[2]": {"molecular_target": "T1, human pregnane X receptor (hPXR)", "test": "TR-FRET competitive binding assay (LanthaScreen PXR); also activates hPXR in reporter assay", "design": "gene NR1I2; hPXR-LBD-GST"}, "[3]": {"molecular_target": "T2, ligand-binding domain (LBD) of human pregnane X receptor (hPXR), residues 130–432 (human, UniProt O75469-1 130-432)", "T2 construct": "In the crystal it stood on one chain with the NCOA1 peptide, joined by the spacer SSSGGT: see m1; also called hPXR LBD; hPXR^LBD; source: Sf9 (recombinant baculovirus), purified, as part of the fusion protein m1", "T2 sequence (looked up)": "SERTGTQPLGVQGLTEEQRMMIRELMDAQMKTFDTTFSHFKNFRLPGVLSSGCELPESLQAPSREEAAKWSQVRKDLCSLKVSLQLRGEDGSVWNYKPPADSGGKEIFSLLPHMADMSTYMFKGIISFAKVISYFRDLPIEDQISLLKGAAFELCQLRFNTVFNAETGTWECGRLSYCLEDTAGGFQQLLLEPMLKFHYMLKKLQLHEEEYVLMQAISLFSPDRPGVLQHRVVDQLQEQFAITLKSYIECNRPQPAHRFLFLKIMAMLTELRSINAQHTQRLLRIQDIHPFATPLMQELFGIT", "test": "crystal structure; hPXR^LBD-NCOA1^676–700 co-crystallised with nomilin (1 mM), sitting drop vapour diffusion at 4 °C, 10% (v/v) 2-propanol, 100 mM imidazole/HCl pH 8.0; 2.1 Å; the homodimer is also said to form in the purification (SEC in 150 mM NaCl, 20 mM HEPES, 1 mM TCEP)", "conditions": "both partners purified"}, "[4]": {"molecular_target": "the molecule itself", "test": "crystal structure; hPXR^LBD-NCOA1^676–700 co-crystallised with nomilin (1 mM), sitting drop vapour diffusion at 4 °C, 10% (v/v) 2-propanol, 100 mM imidazole/HCl pH 8.0; 2.1 Å; the homodimer is also said to form in the purification (SEC in 150 mM NaCl, 20 mM HEPES, 1 mM TCEP)"}}, "data": [{"molecule": "CC(=O)O[C@H]1CC(=O)OC(C)(C)[C@@H]2CC(=O)[C@]3(C)[C@H](CC[C@@]4(C)[C@H](c5ccoc5)OC(=O)[C@H]5O[C@]543)[C@@]12C", "note": "[nomilin]", "values": [{"measurement": "IC50", "setting": "[1]", "value": 5.8, "unit": "µM"}]}, {"molecule": "CC1(C)OC(=O)C[C@H](O)[C@]2(C)[C@H]3CC[C@@]4(C)[C@H](c5ccoc5)OC(=O)[C@H]5O[C@]54[C@]3(C)C(=O)C[C@@H]12", "note": "[deacetylnomilin]", "values": [{"measurement": "IC50", "setting": "[2]", "value": 22.7, "unit": "µM"}]}, {"molecule": "B1", "values": [{"measurement": "binding result", "setting": "[3]", "value": "binds"}]}, {"molecule": "B2", "values": [{"measurement": "stoichiometry N", "setting": "[4]", "value": 2}]}]}
